Laboratory results reported in PMC10504495 (iScience, 2023).

How the values were obtained:
SIRT1 [1] = target: T1, SIRT1 (Homo sapiens, UniProt Q96EB6); test: NAD+ consumption/cycling assay; format: biochemical; settings: overnight (≥12 h)
T1 construct: the human SIRT1 core region (234–505 aa); SUMO (pET-28a-sumo vector) (cleaved yes); made in house; host or cells: E. coli BL21-CodonPlus (DE3)-RIL
T1 sequence (Q96EB6 234-505): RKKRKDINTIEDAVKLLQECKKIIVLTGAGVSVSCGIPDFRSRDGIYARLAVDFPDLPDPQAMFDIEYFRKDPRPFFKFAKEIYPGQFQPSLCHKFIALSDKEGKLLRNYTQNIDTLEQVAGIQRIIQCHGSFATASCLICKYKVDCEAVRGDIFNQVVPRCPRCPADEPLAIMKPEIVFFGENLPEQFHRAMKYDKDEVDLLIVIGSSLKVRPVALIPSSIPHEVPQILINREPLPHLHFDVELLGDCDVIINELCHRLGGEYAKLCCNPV
Source text: (§1) To prepare for the enzymatic assays and crystallization, the human SIRT1 core region (234–505 aa), SIRT2 (50–356 aa), SIRT5 (32–302), and full-length SIRT7 were cloned into a pET-28a-sumo vector, while SIRT3 (118–399 aa) and full-length SIRT6 were cloned into a pET-N-6xHis-TEV (Tobacco etch virus) vector. These vectors were then transformed and expressed in BL21-CodonPlus (DE3)-RIL competent cells. The recombinant proteins were purified via affinity and ion exchange purification, followed by gel filtration. To remove tags during purification, TEV, and sumo protease were utilized. The purified recombinant human Sirtuins were then concentrated to a final concentration of 10 mg/mL and stored at −80°C freezer for use in the following experiments.
To screen the delactylation activity of Sirtuins, we employed a modified[35] NAD^+ cycling assay to measure the amount of unused NAD^+ levels after Sirtuins’ consumption reactions. […] The reduced resazurin is then measured as resorufin, which has a high fluorescence characteristic.[36]
To perform the NAD^+ consumption assay, 50 μM recombinant Sirtuins were co-incubated with 500 μM Kla peptides and 100 μM NAD^+ in […], 20 mM Tris (pH = 7.5) buffer for 3 h or overnight at 37°C. […] Then, the plate was immediately measured by fluorescence spectrophotometer under excitation 549 nm, emission 576 nm condition.

SIRT1 [2] = target: T1, SIRT1; test: HPLC/LC-MS delactylation (erased ratio); format: biochemical; settings: 100 μM peptide, 200 nM SIRT1, 37°C, 3 h
Source text: as §1
(§2) LC-MS analysis was performed to test and verify the delactylation activity of Sirtuins. The lactyl peptides used in LC-MS assay was added 2 additional tryptophan residues at the N- and C- terminus to enhance the HPLC absorption sensitiveness. After incubating the peptides with Sirtuins/HDAC3 at 37°C for 3 h. The reaction was halted by methanol, and LC-MS was used to analyze the erased ratio of different peptides.

HDAC3 = target: T2, HDAC3 (Homo sapiens, UniProt O15379); test: fluorogenic probe delactylation assay; format: biochemical; settings: 10 μM probe
T2 construct: purchased Abcam ab42631
Description: (§3) To determine the absorption spectra, 10 μM p-H4K16laNBD was incubated with or without 0.2 μM SIRT3 and 100 μM NAD^+ for 2 h in 20 mM HEPES buffer (pH = 8.0). For the fluorescence assay, the fluorescence was detected using an excitation wavelength of 480 nm, and the emitted fluorescence signal was measured over the range of 520–740 nm using a microplate reader (Molecular Devices SpectraMax ID5 Microplate Reader).
(§4) For the HPLC analysis, we incubated 10 μM p-H4K16laNBD with 0.2 μM SIRT3 and 100 μM NAD^+ in 20 mM HEPES buffer (pH = 8.0) for 2 h. We also performed time-dependent fluorescence measurements by incubating 10 μM p-H4K16laNBD with 0.2 μM SIRT3 and 100 μM NAD^+ or 0.1 μM HDAC3 in 20 mM HEPES buffer (pH = 8.0) for different time intervals. The fluorescence was measured using an excitation wavelength of 480 nm, and the emitted fluorescence signal at 550 nm was measured using a microplate reader (Molecular Devices SpectraMax ID5 Microplate Reader).
(§5) To determine the fluorescence change after incubating p-H4K16laNBD with various enzymes (HDAC3, SIRT1-3, SIRT5-7), we incubated 10 μM p-H4K16laNBD with 0.2 μM SIRT1-7 (except SIRT4) in 20 mM HEPES buffer (pH = 8.0) containing 100 μM NAD^+ for 2 h. For positive control, we used 0.1 μM HDAC3. The fluorescence was measured using an excitation wavelength of 480 nm, and the emitted fluorescence signal at 550 nm was measured using a microplate reader (Molecular Devices SpectraMax ID5 Microplate Reader).

SIRT3 [3] = target: T3, SIRT3 (Homo sapiens, UniProt Q9NTG7); test: fluorogenic probe delactylation assay; format: biochemical
T3 construct: SIRT3 (118–399 aa); 6xHis with TEV site (pET-N-6xHis-TEV vector) (N, cleaved yes); made in house; host or cells: E. coli BL21-CodonPlus (DE3)-RIL
T3 sequence (Q9NTG7 118-399): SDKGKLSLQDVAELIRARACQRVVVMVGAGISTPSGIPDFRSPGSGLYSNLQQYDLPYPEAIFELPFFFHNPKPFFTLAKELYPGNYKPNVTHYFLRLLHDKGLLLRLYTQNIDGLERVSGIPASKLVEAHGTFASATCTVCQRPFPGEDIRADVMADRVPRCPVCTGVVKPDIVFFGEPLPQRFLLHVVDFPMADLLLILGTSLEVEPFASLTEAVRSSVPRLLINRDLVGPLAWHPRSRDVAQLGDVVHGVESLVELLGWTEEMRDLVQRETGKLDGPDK
Description: as §3, §4, §5

SIRT1 [4] = target: T1, SIRT1; test: fluorogenic probe delactylation assay; format: biochemical; settings: 10 μM probe, 100 μM NAD+, HEPES pH 8.0, 37°C, 2 h
Description: as §5

SIRT2 [5] = target: T4, SIRT2 (Homo sapiens, UniProt Q8IXJ6); test: fluorogenic probe delactylation assay; format: biochemical; settings: 10 μM probe, 100 μM NAD+, HEPES pH 8.0, 37°C, 2 h
T4 construct: SIRT2 (50–356 aa); SUMO (pET-28a-sumo vector) (cleaved yes); made in house; host or cells: E. coli BL21-CodonPlus (DE3)-RIL
T4 sequence (Q8IXJ6 50-356): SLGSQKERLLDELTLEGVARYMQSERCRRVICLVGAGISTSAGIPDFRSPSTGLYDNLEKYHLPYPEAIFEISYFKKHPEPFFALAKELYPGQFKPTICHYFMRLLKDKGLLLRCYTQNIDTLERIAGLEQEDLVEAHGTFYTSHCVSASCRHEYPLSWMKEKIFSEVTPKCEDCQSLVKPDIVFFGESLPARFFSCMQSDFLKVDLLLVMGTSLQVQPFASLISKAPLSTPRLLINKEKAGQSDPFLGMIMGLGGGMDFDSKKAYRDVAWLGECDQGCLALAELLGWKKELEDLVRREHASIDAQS
Description: as §5

SIRT5 = test: fluorogenic probe delactylation assay; format: biochemical, human; settings: 10 μM probe, 100 μM NAD+, HEPES pH 8.0, 37°C, 2 h
Description: as §5

SIRT6 = test: fluorogenic probe delactylation assay; format: biochemical, human; settings: 10 μM probe, 100 μM NAD+, HEPES pH 8.0, 37°C, 2 h
Description: as §5

SIRT7 = test: fluorogenic probe delactylation assay; format: biochemical, human; settings: 10 μM probe, 100 μM NAD+, HEPES pH 8.0, 37°C, 2 h
Description: as §5

[6] = absorption/fluorescence spectra of the probe; format: physicochemical; settings: 10 μM probe
Description: as §3

SIRT2 [7] = target: T4, SIRT2; test: HPLC/LC-MS delactylation (erased ratio); format: biochemical; settings: 100 μM peptide, 200 nM SIRT2, 37°C, 3 h
Source text: as §1, §2

SIRT3 [8] = target: T3, SIRT3; test: HPLC/LC-MS delactylation (erased ratio); format: biochemical; settings: 100 μM peptide, 200 nM SIRT3, 37°C, 3 h; compared with other Sirtuins
Source text: as §1, §2

SIRT3 [9] = target: T3, SIRT3; test: NAD+ consumption/cycling assay; format: biochemical; settings: for delactylation activity in words: NAD+ consumption/cycling, 3 h, Figures 1A, S2
Description: To screen the delactylation activity of Sirtuins, we employed a modified[35] NAD^+ cycling assay to measure the amount of unused NAD^+ levels after Sirtuins’ consumption reactions. This assay involves the conversion of NAD^+ to NADH by alcohol dehydrogenase, followed by the conversion of NADH to NAD^+ by NADH oxidoreductase, diaphorase with resazurin as an electron acceptor. The reduced resazurin is then measured as resorufin, which has a high fluorescence characteristic.[36]
To perform the NAD^+ consumption assay, 50 μM recombinant Sirtuins were co-incubated with 500 μM Kla peptides and 100 μM NAD^+ in 150 NaCl, 20 mM Tris (pH = 7.5) buffer for 3 h or overnight at 37°C. Then, hydrochloric acid, final concentration at 150 mM, was added to terminate the reaction. As for the cycling assay, 200 μL reaction buffer containing 100 mM Na2HPO4 (pH = 8.0), 10 μM resazurin, 10 μM flavin mononucleotide (FMN), 1% absolute ethanol, 66.5 μg/mL alcohol dehydrogenase and 5 μg/mL diaphorase was simultaneously mixed with 10 μL of NAD^+ consumption mixtures in 96-well white plate. Then, the plate was immediately measured by fluorescence spectrophotometer under excitation 549 nm, emission 576 nm condition.

HDAC3/NCOR2 = test: HPLC/LC-MS delactylation (erased ratio); format: biochemical; settings: 100 μM peptide, 200 nM HDAC3/NCOR2, 37°C, 3 h; in comparison with Sirtuins
Description: as §2

SIRT3 [10] = target: T3, SIRT3; test: Kinetic study by HPLC, Lineweaver-Burk; format: biochemical; settings: 10-200 μM peptide, 200 nM SIRT3, Tris pH 7.4, 37°C, 40 min, HPLC 280 nm, 3 replicates
Source text: as §1
To perform the kinetic study, the erasing rate was determined using the HPLC method. The KM and kcat values were then computed using the Lineweaver-Burk method.[37] […] The erased rate was evaluated by HPLC, and integrations at 280 nm were recorded to give the erased ratio. The kinetic parameters were then obtained using the formula: 1/v=(KM/Vmax)(1/[S])+1/Vmax .

[11] = target: human SIRT1 core region (234-505 aa) (human) (UniProt Q96EB6); test: ITC; 40 uL of 2 mM peptide in 20 injections titrated into 200 uL of 30 uM Sirtuin in the cell; 25 C; Tris pH 7.5, 150 mM NaCl; MicroCal PEAQ-ITC analysis software
[12] = target: human SIRT2 (50-356 aa) (human) (UniProt Q8IXJ6); test: as above
lysine lactylation = settings: cells, 24 h treatment; cited from earlier work
Source text: Chemical affinity-based probes are powerful tools that convert weak protein-ligand interactions into robust covalent chemical linkages, thus enabling the capture of transient interactions. […] We tried to use this la ...

T2 sequence (O15379 whole entry): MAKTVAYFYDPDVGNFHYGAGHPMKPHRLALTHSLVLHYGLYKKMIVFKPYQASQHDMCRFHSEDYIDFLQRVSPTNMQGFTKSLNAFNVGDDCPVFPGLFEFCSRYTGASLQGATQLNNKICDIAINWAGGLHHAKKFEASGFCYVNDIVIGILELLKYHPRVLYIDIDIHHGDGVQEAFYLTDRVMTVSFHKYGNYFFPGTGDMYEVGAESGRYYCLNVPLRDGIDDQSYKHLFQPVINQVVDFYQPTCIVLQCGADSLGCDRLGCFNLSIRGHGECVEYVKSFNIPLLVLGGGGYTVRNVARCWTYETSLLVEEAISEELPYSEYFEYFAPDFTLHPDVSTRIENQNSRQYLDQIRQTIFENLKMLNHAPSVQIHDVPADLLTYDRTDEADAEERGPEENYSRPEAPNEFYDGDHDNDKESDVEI
T2 sequence (Q9Y618 395-489 partner limits assumed): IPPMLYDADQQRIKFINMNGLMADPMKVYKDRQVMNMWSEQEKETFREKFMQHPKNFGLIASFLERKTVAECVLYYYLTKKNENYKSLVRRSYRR

## QTARK (L/D lactic acid) STGG [H3K9la, lactyl-lysine H3K9 peptide; Trp-flanked version used in HPLC-MS]
SIRT1 [1]
  NAD+ consumption overnight in words: consumed much higher level of NAD^+
SIRT1 [2]
  hydrolytic activity, HPLC: slight hydrolytic activity

## GGAK(lac)RHRPra-NH2 [p-H4K16laNBD, H4K16la based fluorogenic probe with O-NBD (nitrobenzofurazan) group conjugated to the C-terminus]
HDAC3; 0.1 μM HDAC3, 20 mM HEPES pH 8.0, λex 480, λem 550 nm
  first-order rate constant k, HDAC3: 0.0102 min⁻¹
HDAC3; 0.1 μM HDAC3, HEPES pH 8.0, 37°C, 2 h
  fluorescence response, HDAC3: fluoresced at 550 nm
SIRT3 [3]; 10 μM probe, 0.2 μM SIRT3, 100 μM NAD+, 20 mM HEPES pH 8.0, λex 480, λem 550 nm
  first-order rate constant k, SIRT3: 0.0059 min⁻¹
SIRT3 [3]; 10 μM probe, SIRT3, 100 μM NAD+, HEPES pH 8.0, 37°C, 2 h
  fluorescence response, SIRT3: fluoresced at 550 nm
SIRT3 [3]; control groups
  fluorescence with sole NAD+ or denatured SIRT3: will not affect the fluorescence generating
SIRT1 [4]
  fluorescence response, SIRT1: minimal changes in fluorescence
SIRT2 [5]
  fluorescence response, SIRT2: minimal changes in fluorescence
SIRT5
  fluorescence response, SIRT5: minimal changes in fluorescence
SIRT6
  fluorescence response, SIRT6: minimal changes in fluorescence
SIRT7
  fluorescence response, SIRT7: minimal changes in fluorescence
[6]; 0.2 μM SIRT3, 100 μM NAD+, 2 h, HEPES pH 8.0
  new absorption peak after enzymatic reaction: 482 nm
[6]; 20 mM HEPES pH 8.0, without enzyme
  absorption peak: around 370 nm
[6]; λex 480 nm, 0.2 μM SIRT3, 100 μM NAD+
  fluorescence emission peak after incubation with SIRT3 and NAD+: 550 nm

## WKGLGK (L/D-lactic acid) GGAKW [H4K12la, lactyl-lysine H4K12 peptide]
SIRT1 [2]
  hydrolytic activity, HPLC: didn’t show any hydrolytic activity
SIRT2 [7]
  hydrolytic activity, HPLC: didn’t show any hydrolytic activity
SIRT3 [8]
  erased ratio / hydrolytic activity, HPLC: didn’t show any hydrolytic activity

## KGGAK (L/D lactic acid) RHRK [H4K16la, lactyl-lysine H4K16 peptide; NAD+ assay and ITC]
SIRT3 [9]
  delactylation activity in words: higher delactylation activity
SIRT3 [9]; overnight (≥12 h)
  NAD+ consumption overnight in words: consumed much higher level of NAD^+
SIRT1 [2]
  hydrolytic activity, HPLC: slight hydrolytic activity
HDAC3/NCOR2
  in vitro delactylation activity, HPLC: highest in vitro delactylation activity
SIRT3 [10]
  kcat: 0.08 ± 0.008 s⁻¹
SIRT3 [10]; Lineweaver-Burk
  Vmax: 0.925 ± 0.101 µmol/L/min

## H3K9ac peptide
[11]
  Kd: 92.3 µM
[12]
  Kd: 42.2 µM

## WKQLATK (L/D-lactic acid) AARKW [H3K23la, lactyl-lysine H3K23 peptide]
SIRT3 [9]
  delactylation activity in words: higher delactylation activity

## CC(O)C(=O)[O-].[Na+] (stereo not shown) [sodium lactate]
Lysine lactylation
  induction of lysine lactylation: will induce detectable levels of lysine lactylation
